Experimental data as given in US8778941B2, “TRPM8 antagonists and their use in treatments” (AMGEN Inc., priority 2011, dated 2014).
pIC50: −log10 of the molar value.

Legend:
human TRPM8 = target: T1, human TRPM8 (Homo sapiens, UniProt Q7Z2W7); test: Luminescence readout assay for measuring intracellular calcium (aequorin), hTRPM8 antagonism; type: cell-based; settings: CHO cell line expressing human TRPM8 and aequorin; activation by icilin, L-menthol or cold buffer (table does not say which)
T1 construct: expressed in transfected cells; host or cells: Chinese hamster ovary (CHO) cells, T-REx tetracycline-inducible expression system (Invitrogen), co-transfected with pcDNA3.1 jellyfish aequorin

male C57BL/6 mice = test: Inhibition of icilin induced jumping in mice; type: in vivo; settings: given 1 hour before icilin (i.p. 20 mg/kg), jumps counted 10 minutes post-icilin
Protocol: Icilin Biochemical Challenge Models
Inhibition of Icilin Induced Jumping in Mice
Example compounds at doses ranging from 0.01 to 10 mg/kg were administered to male C57BL/6 mice (18-25 g, Taconic, n=10/treatment) 1 hour before icilin to assess the ability to block the spontaneous jumps induced by icilin (i.p. suspended in 100% PEG400 at 20 mg/kg, 5 mL/kg). The total number of jumps was recorded during the 10 minutes post-icilin administration based on the number of photocell beam breaks from the vertical array of open field boxes (Kinder Scientific) while movement of the mice was restricted within a clear Plexiglas® cylinder 9.5 cm diameter×30 cm height.

T1 sequence (Q7Z2W7 whole entry): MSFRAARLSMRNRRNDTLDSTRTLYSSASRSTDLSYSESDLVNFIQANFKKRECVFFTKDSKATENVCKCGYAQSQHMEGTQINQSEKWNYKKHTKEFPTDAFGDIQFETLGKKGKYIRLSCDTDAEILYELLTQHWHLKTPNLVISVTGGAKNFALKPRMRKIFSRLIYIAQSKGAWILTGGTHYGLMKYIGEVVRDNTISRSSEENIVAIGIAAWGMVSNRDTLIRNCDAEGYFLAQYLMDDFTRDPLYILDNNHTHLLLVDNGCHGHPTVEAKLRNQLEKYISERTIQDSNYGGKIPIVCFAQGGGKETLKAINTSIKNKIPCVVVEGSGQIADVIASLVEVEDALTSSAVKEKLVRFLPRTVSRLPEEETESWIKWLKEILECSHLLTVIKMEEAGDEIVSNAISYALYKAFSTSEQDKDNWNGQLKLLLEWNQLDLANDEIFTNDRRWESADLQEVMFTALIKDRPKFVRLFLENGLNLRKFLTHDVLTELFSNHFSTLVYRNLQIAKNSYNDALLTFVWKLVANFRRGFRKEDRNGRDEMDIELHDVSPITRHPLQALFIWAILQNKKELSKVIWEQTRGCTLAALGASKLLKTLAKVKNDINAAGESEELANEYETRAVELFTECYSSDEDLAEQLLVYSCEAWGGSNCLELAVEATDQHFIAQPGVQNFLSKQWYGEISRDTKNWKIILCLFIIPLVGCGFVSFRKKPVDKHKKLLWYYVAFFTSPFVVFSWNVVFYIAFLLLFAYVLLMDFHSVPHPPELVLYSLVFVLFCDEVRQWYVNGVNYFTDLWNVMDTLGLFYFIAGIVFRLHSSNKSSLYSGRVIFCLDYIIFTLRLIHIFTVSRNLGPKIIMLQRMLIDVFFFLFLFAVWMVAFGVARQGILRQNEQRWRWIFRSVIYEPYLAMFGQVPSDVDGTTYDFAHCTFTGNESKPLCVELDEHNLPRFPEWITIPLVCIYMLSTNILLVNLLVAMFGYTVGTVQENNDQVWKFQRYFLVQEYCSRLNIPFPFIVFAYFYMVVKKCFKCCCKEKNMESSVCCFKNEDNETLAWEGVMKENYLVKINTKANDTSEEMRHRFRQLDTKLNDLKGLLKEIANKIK

Row | Compound | pIC50 (human TRPM8) | % Inhibition of Mouse Jumping (male C57BL/6 mice; dose 10 mg/kg) [%] | % Inhibition of Mouse Jumping (male C57BL/6 mice; dose 3 mg/kg) [%]
1 | O=C(Nc1cccnc1)N[C@@H](c1ccc(C(F)(F)F)c(F)c1)c1ncccc1F [Example 29, (S)-1-((3-fluoro-4-(trifluoro-methyl)-phenyl)(3-fluoropyridin-2-yl)methyl)-3-(pyridin-3-yl)urea] | 7.77 | 96 | –
2 | O=C(Nc1cccnc1)N[C@@H](c1ccc(C(F)(F)F)cc1)c1ncccc1C(F)(F)F [Example 44, (S)-1-(pyridin-3-yl)-3-((4-(trifluoro-methyl)-phenyl)(3-(trifluoro-methyl)-pyridin-2-yl)-methyl)urea] | 7.64 | 74 | –
3 | O=C(Nc1cccnc1)N[C@@H](c1ccc(C(F)(F)F)c(F)c1)c1ncccc1C(F)(F)F [Example 1, (S)-1-((3-Fluoro-4-(trifluoromethyl)phenyl)(3-(trifluoromethyl)-pyridin-2-yl)methyl)-3-(pyridin-3-yl)urea bis(2,2,2-trifluoroacetate)] | 7.64 | 75 | –
4 | O=C(NCCc1ccc2c(c1)OCO2)N[C@@H](c1ccc(C(F)(F)F)cc1)c1ncccc1C(F)(F)F [Example 36, (S)-1-(2-(benzo[d][1,3]dioxol-5-yl)-ethyl)-3-((4-(trifluoro-methyl)-phenyl)(3-(trifluoro-methyl)-pyridin-2-yl)-methyl)urea (2,2,2-trifluoro-acetate)] | 6.41 | – | –
5 | Cc1noc(-c2ccccc2)c1NC(=O)N[C@@H](c1ccc(C(F)(F)F)cc1)c1ncccc1C(F)(F)F [Example 69, (S)-1-(3-methyl-5-phenylisoxazol-4-yl)-3-((4-(trifluoro-methyl)-phenyl)(3-(trifluoro-methyl)-pyridin-2-yl)-methyl)urea (2,2,2-trifluoro-acetate)] | 6.11 | – | –
6 | N#Cc1cccc(NC(=O)N[C@@H](c2ccc(C(F)(F)F)cc2)c2ncccc2C(F)(F)F)c1 [Example 97, (S)-1-(3-cyanophenyl)-3-((4-(trifluoro-methyl)-phenyl)(3-(trifluoro-methyl)-pyridin-2-yl)-methyl)urea (2,2,2-trifluoro-acetate)] | 7.10 | – | –

The remaining molecules from weak to strong by pIC50 (human TRPM8), led by results:

Row | pIC50 (human TRPM8) | Compound | % Inhibition of Mouse Jumping (male C57BL/6 mice; dose 10 mg/kg) [%] | % Inhibition of Mouse Jumping (male C57BL/6 mice; dose 3 mg/kg) [%]
7 | 5.84 | COc1cc(CCNC(=O)N[C@@H](c2ccc(C(F)(F)F)cc2)c2ncccc2C(F)(F)F)cc(OC)c1 [Example 93, (S)-1-(3,5-dimethoxy-phenethyl)-3-((4-(trifluoro-methyl)-phenyl)(3-(trifluoro-methyl)-pyridin-2-yl)-methyl)urea (2,2,2-trifluoro-acetate)] | – | –
8 | 6.18 | CC(C)(C)OC(=O)N[C@@H](c1ccc(C(F)(F)F)cc1)c1ccccn1 [Example 169, (S)-tert-Butyl(pyridin-2-yl(4-(trifluoromethyl)phenyl)methyl)-carbamate 2,2,2-trifluoroacetate] | – | –
9 | 6.81 | CSc1ccccc1NC(=O)N[C@@H](c1ccc(C(F)(F)F)cc1)c1ncccc1C(F)(F)F [Example 137, (S)-1-(2-(methylthio)-phenyl)-3-((4-(trifluoro-methyl)-phenyl)(3-(trifluoro-methyl)-pyridin-2-yl)-methyl)urea (2,2,2-trifluoro-acetate)] | – | –
10 | 7.01 | O=C(Nc1cccnc1)N[C@@H](c1ccc(C(F)(F)F)cc1)c1ccccn1 [Example 30, (S)-1-(pyridin-2-yl(4-(trifluoro-methyl)-phenyl)-methyl)-3-(pyridin-3-yl)-urea] | – | –
11 | 7.21 | CC1(C)C[C@H]1c1cccnc1[C@@H](NC(=O)Nc1cccnc1)c1ccc(C(F)(F)F)cc1 [Example 61, 1-((S)-(3-((R)-2,2-dimethylcyclopropyl)-pyridin-2-yl)-(4-(trifluoro-methyl)-phenyl)-methyl)-3-(pyridin-3-yl)-urea] | 90 | –
12 | 7.41 | C[C@H](NC(=O)N[C@@H](c1ccc(C(F)(F)F)c(F)c1)c1ncccc1C(F)(F)F)C(F)(F)F [Example 151, 1-((S)-(3-fluoro-4-(trifluoro-methyl)-phenyl)(3-(trifluoro-methyl)-pyridin-2-yl)-methyl)-3-((S)-1,1,1-trifluoro-propan-2-yl)-urea (2,2,2-trifluoro-acetate)] | – | 30
13 | 7.43 | CC#Cc1cccnc1[C@@H](NC(=O)Nc1cccnc1)c1ccc(C(F)(F)F)cc1 [Example 51, (S)-1-((3-(prop-1-yn-1-yl)pyridin-2-yl)(4-(trifluoro-methyl)-phenyl)-methyl)-3-(pyridin-3-yl)-urea] | 76 | –
